Measurements as given in US10626125B2, “1,1,1-trifluoro-3-hydroxypropan-2-yl carbamate derivatives as MAGL inhibitors” (PFIZER INC., priority 2017, dated 2020).
Read-outs that look alike come from different tables or passages of the source.

Assays:
[1] = molecular target: T1, human recombinant Monoacylglycerol Lipase (Homo sapiens, UniProt Q99685); test: MAGL enzymatic assay (IC50; 7-HCA substrate added at T=0 min or T=30 min); type: biochemical; details: geometric mean of 2-5 determinations unless otherwise indicated
T1 sequence (Q99685 1-303): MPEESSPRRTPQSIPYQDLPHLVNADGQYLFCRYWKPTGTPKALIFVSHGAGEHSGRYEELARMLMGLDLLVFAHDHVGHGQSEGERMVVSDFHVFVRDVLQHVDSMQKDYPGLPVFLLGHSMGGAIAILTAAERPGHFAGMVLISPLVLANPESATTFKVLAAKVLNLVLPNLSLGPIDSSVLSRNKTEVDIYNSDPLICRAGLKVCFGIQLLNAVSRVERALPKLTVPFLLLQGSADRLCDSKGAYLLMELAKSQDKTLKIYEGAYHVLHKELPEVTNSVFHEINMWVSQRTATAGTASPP

[2] = molecular target: T1, human recombinant Monoacylglycerol Lipase; test: MAGL inactivation (kinact/KI from enzyme progress curves, T=0 min protocol); details: from plot of Kobs vs. compound concentration, geometric mean of 2-5 determinations (b: ≥6)
[3] = MAGL (T = 30 min) IC50, substrate 7-HCA added after 30 minute incubation (T=30 min)
[4] = substrate 7-HCA added immediately (T=0 min), read-out: MAGL (T = 0 min) IC50

SMILES	IC50 [1, 3]	IC50 [1, 4]	MAGL kinact/KI [2]
CN(C(=O)CC1CC1)C1CC2(CCN(C(=O)O[C@H](CO)C(F)(F)F)CC2)C1 [Example 43, (2R)-1,1,1-trifluoro-3-hydroxypropan-2-yl 2-[(cyclopropylacetyl)(methyl)amino]-7-azaspiro[3.5]nonane-7-carboxylate]	2 nM	29 nM	18500 1/s per M
CN(C(=O)Cc1ccccc1)C1CC2(CCN(C(=O)O[C@H](CO)C(F)(F)F)CC2)C1 [Example 44, (2R)-1,1,1-trifluoro-3-hydroxypropan-2-yl 2-[methyl(phenylacetyl)amino]-7-azaspiro[3.5]nonane-7-carboxylate]	4 nM	40 nM	13800 1/s per M
CN(C1CC2(CCN(C(=O)O[C@H](CO)C(F)(F)F)CC2)C1)S(=O)(=O)c1ccccc1 [Example 45, (2R)-1,1,1-trifluoro-3-hydroxypropan-2-yl 2-[methyl(phenylsulfonyl)amino]-7-azaspiro[3.5]nonane-7-carboxylate]	1 nM	9 nM	63200 1/s per M
N#Cc1cccc(C2CC3(CCN(C(=O)O[C@H](CO)C(F)(F)F)CC3)C2)c1 [Example 46, (2R)-1,1,1-trifluoro-3-hydroxypropan-2-yl 2-(3-cyanophenyl)-7-azaspiro[3.5]nonane-7-carboxylate]	1 nM	4 nM	167000 1/s per M
COc1cc(C2CC3(CCN(C(=O)O[C@H](CO)C(F)(F)F)CC3)C2)ccn1 [Example 47, (2R)-1,1,1-trifluoro-3-hydroxypropan-2-yl 2-(2-methoxypyridin-4-yl)-7-azaspiro[3.5]nonane-7-carboxylate]	2 nM	17 nM	17100 1/s per M
O=C(O[C@H](CO)C(F)(F)F)N1CCC2(CC1)CC(c1ccc(C(F)F)cn1)C2 [Example 48, (2R)-1,1,1-trifluoro-3-hydroxypropan-2-yl 2-[5-(difluoromethyl)pyridin-2-yl]-7-azaspiro[3.5]nonane-7-carboxylate]	2 nM	18 nM	26000 1/s per M
O=C(O[C@H](CO)C(F)(F)F)N1CCC2(CC1)CC(n1cc(C3CC3)cn1)C2 [Example 49, (2R)-1,1,1-trifluoro-3-hydroxypropan-2-yl 2-(4-cyclopropyl-1H-pyrazol-1-yl)-7-azaspiro[3.5]nonane-7-carboxylate]	1 nM	13 nM	77400 1/s per M
O=C(O[C@H](CO)C(F)(F)F)N1CCC2(CC1)CC(Oc1cccc(F)c1)C2 [Example 51, (2R)-1,1,1-trifluoro-3-hydroxypropan-2-yl 2-(3-fluorophenoxy)-7-azaspiro[3.5]nonane-7-carboxylate]	0.3 nM	4 nM	128000 1/s per M
CN(C(=O)C1CC1)C1CC2(CCN(C(=O)O[C@H](CO)C(F)(F)F)CC2)C1 [Example 55, (2R)-1,1,1-trifluoro-3-hydroxypropan-2-yl 2-[(cyclopropylcarbonyl)(methyl)amino]-7-azaspiro[3.5]nonane-7-carboxylate]	2 nM	30 nM	15700 1/s per M
O=C(O[C@H](CO)C(F)(F)F)N1CCC2(CC1)CC(n1cccn1)C2 [Example 56, (2R)-1,1,1-trifluoro-3-hydroxypropan-2-yl 2-(1H-pyrazol-1-yl)-7-azaspiro[3.5]nonane-7-carboxylate]	30 nM	310 nM	1420 1/s per M
CN([C@H]1COC2(CCN(C(=O)O[C@H](CO)C(F)(F)F)CC2)C1)S(=O)(=O)CC1CC(F)(F)C1 [Example 57, (2R)-1,1,1-trifluoro-3-hydroxypropan-2-yl (3R)-3-[{[(3,3-difluorocyclobutyl)methyl]sulfonyl}(methyl)amino]-1-oxa-8-azaspiro[4.5]decane-8-carboxylate]	13 nM	113 nM	2770 1/s per M
CN(C(=O)C1CC(F)(F)C1)[C@H]1COC2(CCN(C(=O)O[C@H](CO)C(F)(F)F)CC2)C1 [Example 58, (2R)-1,1,1-trifluoro-3-hydroxypropan-2-yl (3R)-3-{[(3,3-difluorocyclobutyl)carbonyl](methyl)amino}-1-oxa-8-azaspiro[4.5]decane-8-carboxylate]	21 nM	169 nM	1810 1/s per M
O=C(O[C@H](CO)C(F)(F)F)N1CCC2(CC1)CC(Oc1ccnc(C(F)(F)F)c1)C2 [Example 59, (2R)-1,1,1-trifluoro-3-hydroxypropan-2-yl 2-{[2-(trifluoromethyl)pyridin-4-yl]oxy}-7-azaspiro[3.5]nonane-7-carboxylate]	1 nM	5 nM	137000 1/s per M
O=C(O[C@H](CO)C(F)(F)F)N1CCC2(CC1)CC(Oc1cccc(C(F)F)c1)C2 [Example 60, (2R)-1,1,1-trifluoro-3-hydroxypropan-2-yl 2-[3-(difluoromethyl)phenoxy]-7-azaspiro[3.5]nonane-7-carboxylate]	0.3 nM	2 nM	267000 1/s per M
CN(C1CC2(CCN(C(=O)O[C@H](CO)C(F)(F)F)CC2)C1)S(=O)(=O)C(C)(C)C [Example 61, (2R)-1,1,1-trifluoro-3-hydroxypropan-2-yl 2-[(tert-butylsulfonyl)(methyl)amino]-7-azaspiro[3.5]nonane-7-carboxylate]	1 nM	9 nM	66900 1/s per M
O=C(O[C@H](CO)C(F)(F)F)N1CCC2(CC1)CC(Oc1ccccc1)C2 [Example 63, (2R)-1,1,1-trifluoro-3-hydroxypropan-2-yl 2-phenoxy-7-azaspiro[3.5]nonane-7-carboxylate]	1 nM	11 nM	34100 1/s per M
O=C(O[C@H](CO)C(F)(F)F)N1CCC2(CC1)CC(n1cc(F)cn1)C2 [Example 64, (2R)-1,1,1-trifluoro-3-hydroxypropan-2-yl 2-(4-fluoro-1H-pyrazol-1-yl)-7-azaspiro[3.5]nonane-7-carboxylate]	9 nM	96 nM	6260 1/s per M
Cc1nn(C2CC3(CCN(C(=O)O[C@H](CO)C(F)(F)F)CC3)C2)c(C)c1C [Example 65, (2R)-1,1,1-trifluoro-3-hydroxypropan-2-yl 2-(3,4,5-trimethyl-1H-pyrazol-1-yl)-7-azaspiro[3.5]nonane-7-carboxylate]	4 nM	44 nM	10600 1/s per M
O=C(O[C@H](CO)C(F)(F)F)N1CCC2(CC1)CC(n1cc(C(F)F)cn1)C2 [Example 66, (2R)-1,1,1-trifluoro-3-hydroxypropan-2-yl 2-[4-(difluoromethyl)-1H-pyrazol-1-yl]-7-azaspiro[3.5]nonane-7-carboxylate]	4 nM	40 nM	15700 1/s per M
O=C(O[C@H](CO)C(F)(F)F)N1CCC2(CC1)CC(c1ccc(C(F)(F)F)nc1)C2 [Example 67, (2R)-1,1,1-trifluoro-3-hydroxypropan-2-yl 2-[6-(trifluoromethyl)pyridin-3-yl]-7-azaspiro[3.5]nonane-7-carboxylate]	2 nM	14 nM	60600 1/s per M
